The values below come from patent publication US7407939B2, “Protein kinase inhibitors comprising ATP mimetics conjugated to peptides or peptidomimetics” (CureGenics Ltd., priority 2001, dated 2008).

The target in experiment [1] is T1, PKB (Homo sapiens, UniProt P31749).
T1 construct: His; HA; made in house
Nature of the experiment: PKB in vitro kinase activity assay (soluble His-HA-PKB / SPA bead screening). It is filed as biochemical.
Procedure: The enzyme activity measurement is performed as described in the assay for PKA.
Kinase reaction was carried out in final volume of 50 μl. […] The kinase reaction was started by adding 10 μl of 2 μM cold ATP and 0.25 μCi of [γ^33P]-ATP in kinase buffer. The plates were incubated at 27° C. for 1 hr. At the end of the incubation the reaction was stopped by 200 μl of PBS containing 0.1% Triton X-100, 5 mM EDTA, 1 mM ATP and 0.3 mg/ml of Streptavidin-coated SPA bead (Amersham Pharmacia Biotech). After 15 min incubation at room temperature, the reaction mixtures were filtered using Packard GF/B 96-well plates. The plates were washed twice with 2M NaCl and 1% orthophosphoric acid followed by ethanol wash and 1 h air-dry. The radioactivity was counted using microplate counter Packard Top Count

Experiment [2] deals with T2, PKA (Bos taurus, UniProt P00517).
T2 construct: purchased Promega
Nature of the experiment: In vitro PKA kinase activity assay (kemptide / SPA beads).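 Further: Cell-free assay of purified PKA catalytic subunit phosphorylating the 7-mer kemptide substrate, run in MOPS buffer with magnesium acetate and BSA, with blank wells lacking enzyme.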 It is filed as biochemical.

The test system of experiment [3] is PC-3 cells. As to the kind of experiment: ssDNA apoptosis ELISA (induction of apoptosis in prostate cancer cells). It is filed as cell-based. The conditions noted are these: 50 μM, optical density of treated divided by untreated cells. The protocol: Cells were assayed for Apoptosis using the ssDNA Apoptosis ELISA kit (Chemicon International Inc.). Cells were seeded in 96-well plates (5000 cells/well) and treated with different concentrations of the inhibitors. At different time point, plates were centrifuges at 200 g for 5 min, medium was removed and the cells were fixed with 80% methanol in PBS for 30 min at room temperature. Plates were dried by floating in a waterbath at 37° C. for 20 minutes. 50 μl of Formamide was added to each well and incubate at room temperature for 10 min. Plates were heated to 75° C. in a circulating waterbath for 10 min, cooled in refrigerator for 5 min, and then formamide was removed. Plates were blocked by 3% non-fat dry milk in distilled water (w/v) for 1 hr at 37° C. Blocking was removed and 100 μl of antibody mixture (primary monoclonal antibody to ssDNA and HRP-labelled anti-mouse IgM) was added to each well. Plates were monitored for colour development by ABTS using microplate reader at 405 nm.
DNA in apoptotic cells is sensitive to denaturation by formamide in contrast to necrotic cells. This sensitivity is due to changes in apoptotic cells chromatin. The specific denaturation was detected with monoclonal antibody to single stranded DNA. Using ssDNA Apoptosis ELISA kit (Chemicon International, Inc.) chimeric compounds were analyzed for their potential to induce apoptosis in PC-3 cells compared to TRAIL (TNF-related apoptosis-inducing ligand), a known apoptotic agent (R&D Systems, Inc.). Results are presented in values of apoptotic index which is calculated by dividing the optical density of treated and untreated cells.

Setting [4] is: chimeric PTR compounds (peptide conjugated to isoquinoline small molecule), read-out: PKB IC50.
Setting [5] is: chimeric PTR compounds (peptide conjugated to isoquinoline small molecule), read-out: PKA IC50.

Where two headings read alike, the source gives them in different places. *1 amine or outer side, *2 acyl side, *3 side chain or, on linkers, in order; H or OH if unused. Where a SMILES comes first, the peptide text is derived from it. Side-chain parts run from the residue outwards. [ ]: non-standard residue; d: D form. The star is where a group is joined. Isoquinoline5sulfonyl = O=S(=O)(c1cccc2cnccc12)*; Ethylenediamine = C(CN[*:2])N[*:1]; Nle = CCCC[C@H](N)C(=O)O; Dab = NCC[C@H](N)C(=O)O; βAla = NCCC(=O)O

T1 sequence (P31749 whole entry, species assumed): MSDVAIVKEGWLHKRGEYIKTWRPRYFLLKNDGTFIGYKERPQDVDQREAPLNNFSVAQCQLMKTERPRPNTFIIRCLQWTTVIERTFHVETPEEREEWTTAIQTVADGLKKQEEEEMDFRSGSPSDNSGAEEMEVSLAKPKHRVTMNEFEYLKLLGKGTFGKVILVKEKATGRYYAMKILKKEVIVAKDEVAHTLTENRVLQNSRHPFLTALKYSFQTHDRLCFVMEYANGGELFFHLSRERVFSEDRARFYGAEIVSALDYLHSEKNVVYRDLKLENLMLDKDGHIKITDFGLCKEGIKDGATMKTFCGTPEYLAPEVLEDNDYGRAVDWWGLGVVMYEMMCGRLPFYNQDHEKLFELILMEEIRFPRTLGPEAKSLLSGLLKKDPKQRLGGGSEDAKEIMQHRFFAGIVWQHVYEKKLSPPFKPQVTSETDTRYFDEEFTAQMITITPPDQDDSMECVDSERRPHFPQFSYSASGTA

Consider `CCCC[C@H](NC(=O)[C@H](CO)NC(=O)[C@H](CCC(=O)NCCC(=O)NCCNS(=O)(=O)c1cccc2cnccc12)NC(=O)[C@H](CCCC)NC(=O)[C@H](CCCNC(=N)N)NC(=O)[C@@H]1CCCN1C(=O)[C@@H](N)CCCNC(=N)N)C(N)=O` [compound 6096] (H-RPR[Nle]E([βAla-Ethylenediamine-Isoquinoline5sulfonyl])S[Nle]-NH2; N-terminus assumed), for which the IC50 in experiment [1] (setting [4]) is 930 nM; in experiment [2] (setting [5]), 200 nM. For the same compound, in experiment [3], the “Apoptotic index (48 hours)” value is 3.2.
`CCCC[C@H](NC(=O)[C@H](CCCNC(=N)N)NC(=O)[C@@H]1CCCN1C(=O)[C@@H](N)CCCNC(=N)N)C(=O)N[C@@H](CCC(=O)NCCC(=O)NCCNS(=O)(=O)c1cccc2cnccc12)C(=O)N[C@@H](CCN)C(=O)N[C@@H](Cc1ccccc1)C(N)=O` [compound 6140] (H-RPR[Nle]E([βAla-Ethylenediamine-Isoquinoline5sulfonyl])[Dab]F-NH2; N-terminus assumed): the IC50 in experiment [1] (setting [4]) came to 413 nM; in experiment [2] (setting [5]) it was 195 nM. The “Apoptotic index (48 hours)” value in experiment [3] worked out at 4.0.
In the case of `C[C@@H](O)[C@H](NC(=O)[C@H](CCCNC(=N)N)NC(=O)[C@@H]1CCCN1C(=O)[C@@H](N)CCCNC(=N)N)C(=O)N[C@@H](CCC(=O)NCCNS(=O)(=O)c1cccc2cnccc12)C(=O)N[C@@H](CO)C(=O)N[C@@H](Cc1ccccc1)C(N)=O` [PTR 6016] (H-RPRTE([Ethylenediamine-Isoquinoline5sulfonyl])SF-NH2; N-terminus assumed), the IC50 in experiment [1] (FIG. 1, synergistic effect of conjugation, read-out: activity (PKB inhibition)) came out at 900 nM; in experiment [1] (setting [4]), 1000 nM; in experiment [2] (Table 2, chimeric compounds, read-out: Activity PKA), 500 nM; in experiment [2] (setting [5]), 100 nM. For the same compound, the “Apoptotic index (48 hours)” value in experiment [3] was 3.4.
